For series [1] the following is noted: pH 7.2. The protocol: Stock solutions containing the desired complex in DMSO (5 mM) were diluted with phosphate buffer (pH 7.2) to a final concentration of […] compound in 1 % DMSO/20 mM buffer and directly analyzed by four different isocratic UHPLC runs (Δ=5 %). The lipophilicity parameters logkw and lipophilicity indices φ0 were calculated according to literature.7, 37

Series [2] relates to CH1/PA‐1. The series can be described thus: MTT cytotoxicity assay, monolayer culture. The class given is cell-based, human. Conditions: CH1/PA‐1, MTT assay, exposure time 96 h, means ± SDs. An excerpt:
(§1) A549 (non‐small cell lung carcinoma), SW480 and HCT‐116 (both colon carcinoma) were kindly provided by Brigitte Marian, Institute of Cancer Research, Department of Medicine I, Medical University of Vienna, Austria. The cell line CH1/PA‐1 (ovarian teratocarcinoma) was kindly provided by Lloyd R. Kelland (CRC Centre for Cancer Therapeutics, Institute of Cancer Research, Sutton, UK). All cell culture media (including supplements) and reagents were obtained from Sigma–Aldrich, and all plasticware from StarLab, unless indicated otherwise.

Series [3] relates to A549. Kind of series: MTT cytotoxicity assay, monolayer culture. The class given is cell-based, human. The settings on record: exposure time 96 h, means ± SDs.
Text: as §1

Series [4] deals with SW480. The series can be described thus: MTT cytotoxicity assay, monolayer culture. It counts as cell-based, human.
Text: as §1
For orientation: Formazan colour is commonly taken as a measure of viable cells.

In series [5] the test system is SW480 cells. Conditions: ICP‐MS, 2 h exposure, 50 μM.
The subject of series [6] is CH1/PA‐1. The settings on record: CH1/PA‐1 multicellular spheroids, 96 h drug exposure. The procedure: (§2) A549, CH1/PA‐1 and SW480 cells were grown in MEM supplemented with 10 % fetal calf serum (FCS; from Biowest), 1 mM sodium pyruvate, 4 mM L‐glutamine and 1 % v/v nonessential amino acids (from 100×solution) and L‐glutamine. HCT‐116 cells were maintained in McCoy's 5a medium supplemented with 10 % FCS and L‐glutamine. Adherent monolayer cultures were grown in 75 cm^2 flasks. For spheroid culture, A549, CH1/PA‐1 and HCT‐116 cells were harvested from culture flasks by trypsinization, resuspended in their respective supplemented medium and seeded in ultra‐low attachment round‐bottom 96‐well plates (Corning Costar) at a density of 500 viable cells per well. Plates were incubated for 96 h to allow spheroid formation prior to use for the tests. All cultures were incubated in a humidified incubator at 37 °C with 5 % CO2.
(§3) Cytotoxicity in multicellular spheroids was determined by the fluorimetric resazurin assay. […] After incubation for 96 h, 20 μL of a 440 μM resazurin sodium salt solution in PBS were added to each well, and the plates were incubated for further 16 h. Fluorescence was measured with a Synergy HT reader (BioTek) with an excitation wavelength of 530 nm and emission wavelength of 590 nm. For both assays, at least three independent experiments (or two in case of poor activity) were performed, each with triplicates per concentration level, and the 50 % inhibitory concentrations (IC50) relative to untreated controls were interpolated from concentration‐effect curves.

In series [7] the test system is A549. The settings on record: A549 multicellular spheroids, 96 h drug exposure. The procedure: as §2, §3
Series [8] relates to HCT‐116. The settings on record: HCT‐116 multicellular spheroids, 96 h drug exposure. The protocol:
as §2, §3

SMILES strings stand for the structures. Like-named read-outs stand apart in the source and are kept apart here.

For orientation: IC50 means the midpoint of a concentration-inhibition curve. As for `Cc1c([O-])c(=S)ccn1C.Cc1ccc(C(C)C)cc1.[Cl-].[Ru+2]` [Compound 3 a, Chlorido[1,2‐dimethyl‐3‐oxo‐κO‐pyridine‐4(1H)‐thionato‐κS](η^6‐p‐cymene)‐ruthenium(II)], the “φ0 (chromatographic lipophilicity index)” value in series [1] is given as 5.51. The IC50 is more than 200 µM in series [2]; more than 200 µM in series [3]; 55 ± 18 µM in series [4] (SW480, MTT assay, exposure time 96 h, means ± SDs); 54.6 ± 18.4 µM in series [4] (SW480, as listed in Table 3); 267 ± 14 µM in series [6]; more than 400 µM in series [7]. Moreover, the IC50 in series [8] was more than 400 µM. Moreover, the Cellular accumulation in series [5] came out at 21±5 fg/cell.

Source of the values: PMC7217150, “Synthesis, Modification, and Biological Evaluation of a Library of Novel Water‐Soluble Thiopyridone‐Based Organometallic Complexes and Their Unexpected (Biological) Behavior” (Chemistry (Weinheim an Der Bergstrasse, Germany), 2020).
